The values below come from patent publication US12077503B2, “Substituted cyclic amides and their use as herbicides” (FMC CORPORATION, priority 2015, dated 2024).

Holding throughout (format): in vivo
The subject of test [1] is Kochia (Kochia scoparia). The experiment in a line: Test A preemergence. The settings on record: Bassia scoparia, pre-emergence, 240 h, read-out: Plant response rating, Kochia; for pest or weed control at 125 g/ha: 125 g ai/ha, visual rating after approx. 10 d, 0 to 100 scale where 0 is no effect and 100 is complete control. In a few lines:
(§1)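 Each rating is a visual injury score from 0 to 100 given about 10 d after treatment, judged against untreated controls kept alongside in the greenhouse. In loam soil–sand blend, seeds got a preemergence directed soil spray, while postemergence plants were 2 to 10 cm tall at spraying.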

Test [2] concerns barnyardgrass (Echinochloa crus-galli). The experiment in a line: Test A preemergence. The settings on record: Echinochloa crus-galli, pre-emergence, 240 h, read-out: Plant response rating, Barnyardgrass; for pest or weed control at 125 g/ha: 125 g ai/ha, visual rating after approx. 10 d, 0 to 100 scale where 0 is no effect and 100 is complete control. In outline: as §1
The test system of test [3] is giant foxtail (Setaria faberii). The experiment in a line: Test A preemergence. The settings on record: Setaria faberi, pre-emergence, 240 h, read-out: Plant response rating, Foxtail, Giant; for pest or weed control at 125 g/ha: 125 g ai/ha, visual rating after approx. 10 d, 0 to 100 scale where 0 is no effect and 100 is complete control. In outline:
as §1

Test [4] deals with pigweed (Amaranthus retroflexus). As to the kind of experiment: Test A preemergence. Conditions: Amaranthus retroflexus, pre-emergence, 240 h, read-out: Plant response rating, Pigweed; for pest or weed control at 125 g/ha: 125 g ai/ha, visual rating after approx. 10 d, 0 to 100 scale where 0 is no effect and 100 is complete control.
The test system of test [5] is ragweed (common ragweed, Ambrosia elatior). As to the kind of experiment: Test A preemergence. Conditions: Ambrosia artemisiifolia, pre-emergence, 240 h, read-out: Plant response rating, Ragweed; for pest or weed control at 125 g/ha: 125 g ai/ha, visual rating after approx. 10 d, 0 to 100 scale where 0 is no effect and 100 is complete control. In outline:
as §1

For test [6], the system named is ryegrass, Italian (Italian ryegrass, Lolium multiflorum). As to the kind of experiment: Test A preemergence. The settings on record: Lolium multiflorum, pre-emergence, 240 h, read-out: Plant response rating, Ryegrass, Italian; for pest or weed control at 125 g/ha: 125 g ai/ha, visual rating after approx. 10 d, 0 to 100 scale where 0 is no effect and 100 is complete control. In a few lines:
as §1

Test [7] deals with Galium (catchweed bedstraw, Galium aparine). The experiment in a line: Test A postemergence. Conditions: Galium, post-emergence, 240 h, read-out: Plant response rating, Galium; for pest or weed control at 125 g/ha: 125 g ai/ha, postemergence, visual injury after approximately 10 d, 0 to 100 scale (0 no effect, 100 complete control). In a few lines:
as §1

Test [8] deals with Kochia (Kochia scoparia). As to the kind of experiment: Test A postemergence. Conditions: Bassia scoparia, post-emergence, 240 h, read-out: Plant response rating, Kochia; for pest or weed control at 125 g/ha: 125 g ai/ha, postemergence, visual injury after approximately 10 d, 0 to 100 scale (0 no effect, 100 complete control). In a few lines:
as §1

In test [9] the test system is giant foxtail (Setaria faberii). The experiment in a line: Test A postemergence. The settings on record: Setaria faberi, post-emergence, 240 h, read-out: Plant response rating, Foxtail, Giant; for pest or weed control at 125 g/ha: 125 g ai/ha, postemergence, visual injury after approximately 10 d, 0 to 100 scale (0 no effect, 100 complete control). In outline:
as §1

In test [10] the test system is pigweed (Amaranthus retroflexus). The experiment in a line: Test A postemergence. The settings on record: Amaranthus retroflexus, post-emergence, 240 h, read-out: Plant response rating, Pigweed; for pest or weed control at 125 g/ha: 125 g ai/ha, postemergence, visual injury after approximately 10 d, 0 to 100 scale (0 no effect, 100 complete control). In a few lines: as §1

The subject of test [11] is wheat (Triticum aestivum). The experiment in a line: Test A postemergence. The settings on record: Triticum aestivum, post-emergence, 240 h, read-out: Plant response rating, Wheat. In outline:
as §1

The test system of test [12] is barnyardgrass (Echinochloa crus-galli). The experiment in a line: Test B flooded paddy test. The settings on record: Echinochloa crus-galli, Flood, 250 g ai/ha; scale of 0 to 100 where 0 is no effect and 100 is complete control; read-out: Barnyardgrass plant response rating. In outline: (§2)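 Visual ratings (0 none to 100 complete control) are relative to untreated plants, taken 13–15 d after treatment in a greenhouse. Test material went straight into floodwater standing 3 cm above the soil, kept constant, on plants at the 2-leaf stage.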

Test [13] deals with ducksalad (Heteranthera limosa). The experiment in a line: Test B flooded paddy test. The settings on record: Heteranthera limosa, Flood, 250 g ai/ha; scale of 0 to 100 where 0 is no effect and 100 is complete control; read-out: Ducksalad plant response rating. In a few lines:
as §2

A further test deals with rice (Oryra sativa). As to the kind of experiment: Test B flooded paddy test. The settings on record: Oryza sativa, Flood, 250 g ai/ha; scale of 0 to 100 where 0 is no effect and 100 is complete control; read-out: Rice plant response rating. In a few lines: as §2
Test [14] has as its system sedge, umbrella (small-flower umbrella sedge, Cyperus difformis). As to the kind of experiment: Test B flooded paddy test. The settings on record: Cyperus difformis, Flood, 250 g ai/ha; scale of 0 to 100 where 0 is no effect and 100 is complete control; read-out: Sedge, Umbrella plant response rating. In outline:
as §2

Where [15] appears, read: Preemergence, 31 g ai/ha, 0 to 100 scale (0 no effect, 100 complete control).
The mark [16] stands for this setting: Postemergence, 31 g ai/ha, visual injury after approx. 10 d, 0 to 100 scale, 0 no effect, 100 complete control.
The mark [17] stands for this setting: 500 g ai/ha, preemergence, 0 to 100 scale, 0 = no effect, 100 = complete control.

Regarding `O=C1NCC[C@H](c2ccc(Cl)cc2)[C@H]1C(=O)Nc1cccc(F)c1F` [Compound 795], the pest or weed control at 125 g/ha in the test with Kochia (Kochia scoparia) [1] (preemergence) was found to be 0%; in [2] (preemergence), 80%; in test [3] (preemergence), 70%; in test [4] (preemergence) it was 0%; in [5] (preemergence) it was 0%; in test [6] (preemergence), 0%. In addition, the pest or weed control at 125 g/ha was 0% in test [7], 0% in the test with Kochia (Kochia scoparia) [8], 50% in [9] and 0% in test [10]. The pest or weed control at 31 g/ha in the test on Kochia (Kochia scoparia) [1] (setting [15]) was 0%; in [2] (setting [15]), 30%; in [3] (setting [15]), 0%; in [4] (setting [15]), 0%; in [5] (setting [15]), 0%; in test [6] (setting [15]), 0%. Also, the pest or weed control at 31 g/ha (in [7] (setting [16]); in the test on Kochia (Kochia scoparia) [8] (setting [16]); in test [9] (setting [16]); in test [10] (setting [16])) was 0% throughout. Also, the plant injury at 31 g/ha in test [11] (setting [16]) was found to be 0%. In addition, the pest or weed control at 250 g/ha was 0% in test [12], 70% in test [13], 0% in the test on rice (Oryra sativa) and 0% in test [14].
With `Cc1ccc([C@H]2CN(C)C(=O)[C@@H]2C(=O)Nc2cccc(F)c2C)cc1C` [Compound 732], the pest or weed control at 125 g/ha in the test on Kochia (Kochia scoparia) [1] (preemergence) is 70%; in test [2] (preemergence), 90%; in test [3] (preemergence), 90%; in test [4] (preemergence) it was 0%; in test [5] (preemergence), 0%; in test [6] (preemergence), 80%. For the same compound, the pest or weed control at 125 g/ha in test [7] was 30%; in the test on Kochia (Kochia scoparia) [8], 20%; in test [9], 90%; in test [10] it was 0%. Also, the pest or weed control at 500 g/ha in the test on Kochia (Kochia scoparia) [1] (setting [17]) amounted to 90%; in test [2] (setting [17]) it was 100%; in test [3] (setting [17]), 90%; in [4] (setting [17]), 20%; in test [5] (setting [17]), 70%; in [6] (setting [17]), 80%. For the same compound, in test [11] (125 g ai/ha, postemergence, visual injury after approximately 10 d, 0 to 100 scale (0 no effect, 100 complete control)), the plant injury at 125 g/ha was 80%. Further, the pest or weed control at 250 g/ha in [12] was 45%; in test [13] it was 100%; in the test with rice (Oryra sativa) it was 0%; in [14], 0%.
